The values below come from US20240252638A1, “INDUCER FOR REPROGRAMMING T CELL INTO NK-LIKE CELL AND APPLICATION OF INDUCER” (ZHAOTAI IMMUGENE BIOMEDICINE (HONG KONG) LIMITED, priority 2021, published 2024).

Each structure is given as a SMILES string.

In test [1] the test system is primary T cells in human umbilical cord blood. Kind of test: Detection of phenotypes of reprogrammed T cells through flow cytometry (NKp30/NKp46 expression). Type of test: cell-based. The note with it: for expression rate of NKp30 in CD4 T cells: drug concentrations of Table 1 (DAC 0.2 μM, GSK-3484862 2 μM, Mocetinostat 0.2 μM), DMSO group approximately 7.74%; for expression rate of NKp46 in CD8 T cells: DMSO group approximately 0.26%; for expression rate of NKp30 in CD8 T cells: DMSO group approximately 12.2%; for expression of NKp46 and NKp30 in CD4 and CD8 among induced T cells compared with DMSO: induced by a single inhibitor until Day5; for expression of NKp46 and NKp30 in CD4 and CD8 among induced T cells compared with DMSO / induction of T cells to reprogram into NK-like cells: concentrations of Table 1; for induction of T cells to reprogram into NK-like cells: induced until Day5. The text has this:
In this example, umbilical cord blood mononuclear cells (UCBMCs) were separated from the umbilical cord blood through Ficoll-hypaque (polysucrose-meglumine diatrizoate) density gradient centrifugation, 4×10^7 CD3 positive UCBMCs were taken and cultured overnight with a cell density of 2×10^6 cells/mL, remaining UCBMCs were frozen, and T cells were sorted by the Pan T cell isolation kit and cultured for a period of time to obtain ≥4×10^7 CD3 positive T cells with a viability rate of ≥70% and without contamination by exogenous microorganisms such as bacteria, fungi and mycoplasmas.
(1) T cells activated by TransAct for 36 h were taken and centrifuged at 300 g for 5 min, the T cells were resuspended with an IMDM+5% FBS+1% double antibody (a 100×penicillin-streptomycin mixed solution)+IL2 (300 U), and a T cell density was adjusted to (2−3)×10^5 cells/mL.
(2) Groups of small molecule inhibitor drugs were added to the resuspended T cells, respectively. Half of media were changed every day, and extra new drugs were added according to volumes obtained after the media were changed. A day when the drugs were initially added was denoted as Day0, and when the drugs continued to be added until Day5, the mixtures were centrifuged at 300 g for 5 min, and the media were changed. Then, the cells continued to be cultured with an IMDM+5% FBS+1% double antibody (a 100×penicillin-streptomycin mixed solution).
(1) 200 μL each of the T cells induced by DAC until Day6, the T cells induced by GSK-3484862 until Day 6, the T cells co-induced by DAC and Mocetinostat until Day6, the T cells co-induced by GSK-3484862 and Mocetinostat until Day6 and the untreated T cells were taken and centrifuged at 400 g for 4 min. After supernatant was discarded, 50 μL phosphate buffer (PBS) was added to resuspend the cells. Then, 0.5 μL each of CD3 PE-Cy7, CD4 APC-Cy7, CD8 FITC, NKp30 PE and NKp46 APC were added to each of the mixtures and incubated for 30 min at 4° C. in the dark, 500 μL PBS was added to dilute the antibody and centrifuged at 400 g for 4 min, supernatant was carefully discarded, and 300 μL PBS was added to resuspend the cells, transferred to a flow tube and loaded on a flow cytometer.
(2) Data analysis was performed by BD-flowcyto analysis software, and 10000 cells were collected in each tube. The appearance of a significant increase in NKp-30 and the appearance of an NKp46-positive cell population were used as signs of successful reprogramming, and a percentage of positive T cells was calculated.
In addition, the T cells induced by GSK-3484862 until Day5, the T cells induced by Tazemetostat until Day5, the T cells induced by GSK126 until Day5, the T cells co-induced by Tazemetostat and GSK-3484862 until Day5, the T cells co-induced by GSK-3484862 and GSK126 until Day5 and the untreated T cells were taken and subjected to the same operations, and phenotypes of the reprogrammed T cells were identified through flow cytometry. The results are shown in FIGS. 9A, 9B, 10A, 10B, 11A, 11B, 12A, 12B, 13A, 13B, 14A and 14B.
For orientation: In flow cytometry, cells or beads pass a laser one at a time.

Test [2] deals with K562 cells (human chronic myeloid leukemia cells). Kind of test: In vitro killing detection of reprogrammed T cells (luciferase). It is filed as cell-based. The conditions noted are these: effector-target ratios 16:1 to 1:4, co-cultured 24 h, vs T cells treated by DMSO. An excerpt: (1) The T cells induced by GSK-3484862, the T cells induced by DAC, the T cells induced by Mocetinostat, the T cells co-induced by GSK-3484862 and Mocetinostat, the T cells co-induced by DAC and Mocetinostat and the T cells treated by DMSO were mixed with 1×10^4 K562 cells (human chronic myeloid leukemia cells) according to different effector-target ratios (16:1, 8:1, 4:1, 2:1, 1:1, 1:2 and 1:4), respectively, and added to a 96-well cell culture plate. Three duplicate wells were set for each group, and a group with the addition of tumor cells alone was set as a positive control. After centrifugation at 250×g for 5 min, the cells were placed in a 5% CO2 incubator at 37° C. and co-cultured for 24 h.
(2) After 24 h, 100 μL/well luciferase substrate (1×) was added to the 96-well cell culture plate, and the cells were resuspended and uniformly mixed. RLU (Relative light units) were immediately measured by a multifunctional microplate reader for 0.1 s. A killing proportion calculation formula of a quantitative killing efficiency assessment method using a luciferase is as follows:
100%×(control well reading-experimental well reading)/control well reading (blank group (without the addition of the cells) reading may be ignored).
In addition, according to the same method, the T cells induced by GSK-3484862, the T cells induced by Tazemetostat, the T cells induced by GSK126, the T cells co-induced by GSK-3484862 and Tazemetostat and the T cells co-induced by GSK-3484862 and GSK-126 were separately used and the T cells treated by DMSO was used as a control to detect killing abilities of the reprogrammed T cells against K562 cells.

Test [3] deals with reprogrammed T cells co-cultured with K562. Kind of test: Secretion of cytokines IFN-γ and granzyme B by reprogrammed T cells co-cultured with K562 (ELISA). Type of test: cell-based, human. The note with it: co-cultured with K562 for 48 h, supernatant. As for the experimental part:
The T cells induced by DAC, the T cells induced by GSK-3484862, the T cells co-induced by DAC and Mocetinostat, the T cells co-induced by GSK-3484862 and Mocetinostat and the T cells treated by DMSO were co-cultured with human chronic myeloid leukemia cells K562 for 48 h, respectively, and expression levels of cytokines IFN-γ and a granzyme B in supernatant were detected through ELISA.
For orientation: In an ELISA, binding on a coated surface is turned into a signal by an enzyme label.

[4] abbreviates: T cells induced until Day6, drug concentrations of Table 1.

Consider `Nc1ncn([C@H]2C[C@H](O)[C@@H](CO)O2)c(=O)n1` [DAC, decitabine], for which, in test [1] (T cells induced until Day6), the “expression rate of NKp30 in CD4 T cells” value was “approximately 83.2%”. In test [1] (setting [4]), the “expression rate of NKp46 in CD8 T cells” value is “approximately 11.2%” and the “expression rate of NKp30 in CD8 T cells” value is on record as “approximately 60.5%”.

On to `CC[C@H](C)n1cc(C)c2c(C(=O)NCc3c(C)cc(C)[nH]c3=O)cc(-c3ccc(N4CCNCC4)nc3)cc21` [GSK126], for which, in test [1], the “expression of NKp46 and NKp30 in CD4 and CD8 among induced T cells compared with DMSO” value was “significantly expressed”; the “induction of T cells to reprogram into NK-like cells” value is on record as “can induce the T cells to reprogram into NK-like cells”. Moreover, the “in vitro killing of K562 by induced T cells” value (shortened to “in vitro killing of K562”) in test [2] was “effectively kill”.

Regarding `CCc1c(C#N)c(SC(C(N)=O)c2ccccc2)nc(N(C)C)c1C#N` (stereo not drawn) [GSK-3484862], the “IFN-γ and granzyme B secreted by induced T cells (immune effect)” value in test [3] is “produce an immune effect”. Further, in test [1] (setting [4]), the “expression rate of NKp46 in CD4 T cells” value is reported as “approximately 5.16%”, the “expression rate of NKp46 in CD8 T cells” value is “approximately 21.4%” and the “expression rate of NKp30 in CD8 T cells” value is given as “approximately 50.8%”. The “expression rate of NKp30 in CD4 T cells” value in test [1] (T cells induced until Day6) is recorded as “approximately 81.4%”. In test [1], the “expression of NKp46 and NKp30 in CD4 and CD8 among induced T cells compared with DMSO” value is on record as “significantly expressed”; the “induction of T cells to reprogram into NK-like cells” value is “can induce the T cells to reprogram into NK-like cells”. For the same compound, the “in vitro killing of K562” value in test [2] is listed as “effectively kill”.

`Nc1ccccc1NC(=O)c1ccc(CNc2nccc(-c3cccnc3)n2)cc1` [Mocetinostat]: in test [2], the “in vitro killing of K562” value is “effectively kill”.
